Reference: patent US11178869B2, “Microbiocidal quinoline (thio)carboxamide derivatives” (priority 2017, dated 2021)

Tests used:
[1] = tested on: Botryotinia fuckeliana (Botrytis cinerea); assay: Botryotinia fuckeliana (Botrytis cinerea) / liquid culture (gray mould); type: cell-based; settings: 72 h, 200 ppm, compared to untreated control, growth inhibition photometrically 3-4 days after application, read-out: disease control
[2] = tested on: Magnaporthe grisea (Pyricularia oryzae); assay: microbe, parasite or virus in culture; type: cell-based; settings: read-out: control of Magnaporthe grisea
[3] = tested on: Monographella nivalis (Microdochium nivale); assay: Monographella nivalis (Microdochium nivale) / liquid culture (foot rot cereals); type: cell-based; settings: 200 ppm, compared to untreated control, growth inhibition photometrically 4-5 days after application, read-out: disease control
[4] = tested on: Glomerella lagenarium (Colletotrichum lagenarium); assay: Glomerella lagenarium (Colletotrichum lagenarium) / liquid culture (anthracnose); type: cell-based; settings: Colletotrichum orbiculare; 200 ppm; compared to untreated control; growth inhibition photometrically 3-4 days after application; read-out: disease control
[5] = tested on: Gaeumannomyces graminis; assay: Gaeumannomyces graminis / liquid culture (take-all of cereals); type: cell-based; settings: compared to untreated control, 4-5 days after application
[6] = tested on: Fusarium culmorum; assay: microbe, parasite or virus in culture; type: cell-based; settings: read-out: disease control
[7] = tested on: Fusarium culmorum; assay: whole plant or invertebrate; type: in vivo, Fusarium culmorum on wheat spikelets cv. Monsun; settings: in Triticum aestivum, 144 h, read-out: control of Fusarium culmorum

CC(C)[C@](C)(C#Cc1ccccc1)NC(=O)c1cnc2c(F)cccc2c1 (single isomer, unassigned) [Compound G-8]
≥ 80%: inhibition of growth at 200 ppm [1] | inhibition of growth at 20 ppm [2] | inhibition of growth at 200 ppm [3] | inhibition of growth at 200 ppm [4] | inhibition of growth at 20 ppm [5] | inhibition of growth at 200 ppm [6]

O=C(NC(C#Cc1ccccc1)CCC(F)(F)F)c1cnc2c(F)cccc2c1 (stereo not shown) [Compound F-4, 8-fluoro-N-[4,4,4-trifluoro-1-(2-phenylethynyl)butyl]quinoline-3-carboxamide]
≥ 80%: inhibition of growth at 200 ppm [1] | inhibition of growth at 20 ppm [2] | inhibition of growth at 200 ppm [3] | inhibition of growth at 20 ppm [5] | inhibition of growth at 200 ppm [6]

CCC(C#Cc1ccccc1)(CC)NC(=O)c1cnc2c(F)cccc2c1 [Compound F-6, N-(1,1-diethyl-3-phenyl-prop-2-ynyl)-8-fluoro-quinoline-3-carboxamide]
≥ 80%: inhibition of growth at 200 ppm [1] | inhibition of growth at 200 ppm [3] | inhibition of growth at 200 ppm [4] | inhibition of growth at 20 ppm [5] | inhibition of growth at 200 ppm [6]

CCC(C)(C#Cc1ccccc1C)NC(=O)c1cc2cccc(F)c2nc1C (stereo not shown) [Compound F-14, N-[1-ethyl-1-methyl-3-(o-tolyl)prop-2-ynyl]-8-fluoro-2-methyl-quinoline-3-carboxamide]
≥ 80%: inhibition of growth at 200 ppm [1] | pest or weed control at 200 ppm [7] | inhibition of growth at 20 ppm [2] | inhibition of growth at 200 ppm [4] | inhibition of growth at 200 ppm [6]

CCC(C)(C#Cc1ccccc1)NC(=O)c1cc2cccc(F)c2nc1C (stereo not shown) [Compound F-16, N-(1-ethyl-1-methyl-3-phenyl-prop-2-ynyl)-8-fluoro-2-methyl-quinoline-3-carboxamide]
≥ 80%: inhibition of growth at 200 ppm [1] | pest or weed control at 200 ppm [7] | inhibition of growth at 20 ppm [2] | inhibition of growth at 200 ppm [3] | inhibition of growth at 200 ppm [4] | inhibition of growth at 200 ppm [6]

COc1ccc(Cl)cc1C#CC(C)(C)NC(=O)c1cnc2c(F)cccc2c1 [Compound F-23, N-[3-(5-chloro-2-methoxy-phenyl)-1,1-dimethyl-prop-2-ynyl]-8-fluoro-quinoline-3-carboxamide]
≥ 80%: inhibition of growth at 200 ppm [1] | inhibition of growth at 200 ppm [3] | inhibition of growth at 200 ppm [4] | inhibition of growth at 20 ppm [5] | inhibition of growth at 200 ppm [6]

Cc1ccc(F)c(C#CC(C)(C)NC(=O)c2cnc3c(F)cccc3c2)c1 [Compound F-45, 8-fluoro-N-[3-(2-fluoro-5-methyl-phenyl)-1,1-dimethyl-prop-2-ynyl]quinoline-3-carboxamide]
≥ 80%: inhibition of growth at 200 ppm [1] | pest or weed control at 200 ppm [7] | inhibition of growth at 200 ppm [3] | inhibition of growth at 200 ppm [4] | inhibition of growth at 200 ppm [6]

CC(C)C[C@H](C#Cc1ccccc1)NC(=O)c1cnc2c(F)cccc2c1 [Compound G-3, 8-fluoro-N-[(1R)-3-methyl-1-(2-phenylethynyl)butyl]quinoline-3-carboxamide]
≥ 80%: inhibition of growth at 200 ppm [1] | inhibition of growth at 20 ppm [2] | inhibition of growth at 200 ppm [3] | inhibition of growth at 200 ppm [4] | inhibition of growth at 20 ppm [5] | inhibition of growth at 200 ppm [6]
